From publication PMC11678328, “Phosphine Oxide Indenoquinoline Derivatives: Synthesis and Biological Evaluation as Topoisomerase I Inhibitors and Antiproliferative Agents” (Molecules, 2024)

Experiments:
[1] = test system: SKOV3 (human ovarian carcinoma); experiment: CCK-8 cytotoxicity assay, SKOV3; type: cell-based; conditions: SK-OV-3, SKOV3 cells, 48h
Description: (§1) The cytotoxic effects of the newly synthesized diphenyl(tetrahydro-5H-indeno[2,1-c]quinolin-2-yl)phosphine oxides 8, diphenyl(7H-indeno[2,1-c]quinolin-2-yl)phosphine oxides 9, and diphenyl(7-oxo-7H-indeno[2,1-c]quinolin-2-yl)phosphine oxides 10 derivatives were studied against several human cell lines: A549 (carcinomic human alveolar basal epithelial cell), SKOV3 (human ovarian carcinoma), and HEK293 (human embryonic kidney). Furthermore, in order to analyze the selective cytotoxicity facing exclusively cancerous cell lines, toxicity against a non-cancerous cell line (MRC-5, lung fibroblast cells) was also evaluated (Table 3). The cell counting kit (CCK-8) assay was employed to assess the growth inhibition and cell proliferation inhibitory activities of the compounds, which are described in Table 3 as IC50 values.
(§2) Cells were cultured according to the supplier’s instructions. Cells were seeded in 96-well plates at a density of 1.5–3 × 10^3 cells per well and incubated overnight in 0.1 mL of media supplied with 10% Fetal Bovine Serum (Lonza) in a 5% CO2 incubator at 37 °C. On day 2, drugs were added and the samples were incubated for 48h. After treatment, 10 μL of the cell counting kit-8 was added into each well for an additional 2h incubation at 37 °C. The absorbance of each well was determined by an Automatic Elisa Reader System at 450 nm wavelength (deducting 620 nm). CPT was used as the positive control.

human TOP1 [2] = target: T1, human TOP1 (Homo sapiens, UniProt P11387); experiment: TOP1 supercoiled plasmid DNA relaxation assay; type: biochemical; conditions: 30 min reaction; compounds at 100 μM; semiquantitative
T1 construct: made in house; host or cells: Saccharomyces cerevisiae TOP1 null strain RS190, plasmid pHT143 (GAL promoter)
T1 sequence (P11387 1-765): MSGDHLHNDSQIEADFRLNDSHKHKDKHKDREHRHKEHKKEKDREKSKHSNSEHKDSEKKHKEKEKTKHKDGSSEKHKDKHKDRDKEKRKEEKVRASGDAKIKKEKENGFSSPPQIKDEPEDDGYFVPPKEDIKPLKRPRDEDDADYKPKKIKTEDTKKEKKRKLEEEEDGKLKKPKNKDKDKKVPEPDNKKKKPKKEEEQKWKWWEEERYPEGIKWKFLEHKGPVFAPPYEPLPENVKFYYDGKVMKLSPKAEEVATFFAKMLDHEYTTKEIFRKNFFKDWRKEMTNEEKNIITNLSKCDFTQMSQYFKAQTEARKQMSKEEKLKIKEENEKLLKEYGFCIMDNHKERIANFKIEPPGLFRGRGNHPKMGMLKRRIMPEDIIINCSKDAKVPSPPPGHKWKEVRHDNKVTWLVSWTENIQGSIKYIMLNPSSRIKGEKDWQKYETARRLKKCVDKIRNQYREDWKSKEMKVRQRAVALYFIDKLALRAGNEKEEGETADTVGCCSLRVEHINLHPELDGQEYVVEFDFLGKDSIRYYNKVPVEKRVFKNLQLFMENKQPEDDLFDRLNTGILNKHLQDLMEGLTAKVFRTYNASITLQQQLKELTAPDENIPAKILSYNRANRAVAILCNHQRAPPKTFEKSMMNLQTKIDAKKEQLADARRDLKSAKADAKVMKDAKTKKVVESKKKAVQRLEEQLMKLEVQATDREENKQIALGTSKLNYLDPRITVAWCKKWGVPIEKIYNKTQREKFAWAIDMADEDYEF

[3] = test system: A549 (carcinomic human alveolar basal epithelial cell); experiment: CCK-8 cytotoxicity assay, A549; type: cell-based; conditions: Homo sapiens, A549, 48 h, A549 cells, 48h, CCK-8
Description: as §1, §2

human TOP1 [4] = target: T1, human TOP1; experiment: TOP1 supercoiled plasmid DNA relaxation assay; type: biochemical; conditions: compounds at 100 μM, semiquantitative
Description: The effect of the previously prepared compounds as TOP1 inhibitors was studied. A conventional supercoiled plasmid relaxation assay was used to determine if the newly fused tetrahydroindenoquinolines 8, more aromatic indenoquinolines 9, and carbonyl derivatives 10 with phosphine oxide substituents inhibit human TOP1 activity by converting supercoiled plasmid DNA to its relaxed form. In these experiments, compound samples were mixed with the enzyme followed by the addition of a supercoiled plasmid DNA substrate, and incubation continued for increasing time intervals (1 min, 3 min, and 5 min). The reaction was terminated by the addition of SDS. DNA relaxation products were then resolved by 1% agarose electrophoresis gel and visualized by gel red staining.
The yeast Saccaromyces cerevisiae TOP1 null strain RS190, which was used for the expression of recombinant human TOP1, was a kind gift from R. Sternglanz (State University of New York, Stony Brook, NY, USA). Plasmid pHT143, for the expression of recombinant TOP1 under the control of an inducible GAL promoter, was described. The plasmids pHT143 were transformed into the yeast S. cerevisiae strain RS190. The proteins were expressed and purified by affinity chromatography essentially as described. The protein concentrations were estimated from Coomassie blue-stained SDS/polyacrylamide gels by comparison to serial dilutions of bovine serum albumin (BSA).
TOP1 activity was assayed using a DNA relaxation assay by incubating 110 ng/mL of TOP1 with 0.5 µg of negatively supercoiled pUC18 in […] of reaction buffer (20 mM Tris HCl, 0.1 mM Na2EDTA, 10 mM MgCl2, […] acetylated BSA, and 150 mM KCl, pH 7.5). The effect of the synthesized phosphorylated derivatives 8, 9, and 10 on the TOP1 activity was measured by adding different concentrations of the compounds, at different time points, as indicated in the text. The reactions were performed at 37 °C stopped by the addition of 0.5% SDS after the indicated time intervals. The samples were protease-digested and electrophoresed in a horizontal 1% agarose gel in 1xTBE (50 mM Tris, 45 mM boric acid, 1 mM EDTA) at 25V during 18h. The gel was stained with gel red (BIOTIUM, 5 mg/mL), destained with water, and photographed under UV illumination. Since all drugs were dissolved in dimethyl sulfoxide (DMSO), a […] control sample containing the same DMSO concentration as the samples incubated with the drugs was included in all experiments.

[5] = test system: HEK293 (human embryonic kidney); experiment: CCK-8 cytotoxicity assay, HEK293; type: cell-based; conditions: HEK293 cells, 48h
Description: as §1, §2

[6] = test system: MRC-5, lung fibroblast cells; experiment: CCK-8 cytotoxicity assay, MRC5; type: cell-based, human; conditions: Homo sapiens; MRC5 non-cancerous cells, 48h, CCK-8
Description: as §1, §2

TOP1 Inhibition 30 min (human TOP1 [2]): + (weak inhibition)
TOP1 Inhibition 1 min (human TOP1 [4]; 1 min reaction): + (weak inhibition)
TOP1 Inhibition 3 min (human TOP1 [4]; 3 min reaction): + (weak inhibition)
TOP1 Inhibition 5 min (human TOP1 [4]; 5 min reaction): + (weak inhibition)
Compound: O=C1c2ccccc2-c2c1c(-c1cccc3ccccc13)nc1ccc(P(=O)(c3ccccc3)c3ccccc3)cc21 [Compound 10g, (6-(Naphth-1-yl)-7-oxo-7H-indeno[2,1-c]quinolin-2-yl)diphenylphosphine oxide]
IC50 [1]: > 50 µM
IC50 [3]: > 50 µM
IC50 [5]: > 50 µM
IC50 [6]: > 50 µM
